# In PMC12019880 (Frontiers in Pharmacology, 2025):
# Several values for one entry are separate records, joined by “and”; a condition that tells them apart may be missing. Equal values may be shown once.
# Tests used:
# [1] = tested on: Na^+ current of larger diameter DRG neurons; assay type: cell-based, mouse
# [2] = tested on: TTX-S Na^+ currents from adult mouse DRG neurons
# hNav1.5 = test: automated patch-clamp, hNav1.5; assay type: cell-based, human; conditions: up to 3,300 nM (Figure 4c)
# Protocol: (§1) CHO cells stably expressing hNav1.7 were cultured in Dulbecco’s Modified Eagle’s Medium (DMEM) supplemented with 10% foetal calf serum, 1 mM pyruvic acid, 4 mM glutamine, 10 U/mL penicillin and 10 μg/mL streptomycin (Gibco, Grand Island, NY), and incubated at 37°C in a 5% CO2 atmosphere. For electrophysiological recordings, cells were detached with trypsin and floating single cells were diluted (∼300,000 cells/mL) in medium containing (in mM): 4 KCl, 140 NaCl, five glucose, 10 2-[4-(2-hydroxyethyl)piperazin-1-yl]ethanesulfonic acid (HEPES, pH 7.4, osmolarity 290 mOsm). Similar culturing conditions were used for HEK-293 cell lines expressing hNav1.1, hNav1.2, hNav1.3, hNav1.5 and hNav1.6 channels. The plasmid pcDNA3.1+/C-(K)-DYK (Genscript, Piscataway, New Jersey, USA) was used for transient expression of mNav1.7 in HEK-293T cells using the Maxcyte electroporation system.
# (§2) Chips with single-hole and high-resistance 5.14 ± 0.02 MΩ (n = 384) were used for HEK-293 cell recordings. Only cells with seal resistance above 500 MΩ and Rs values <15 MΩ were kept for analyses. All Rs values were compensated at 90%. Voltage pulses and whole-cell recordings were achieved using the PatchControl384 v1.5.3 software (Nanion Technologies, Munich, Germany) and the Biomek v1.0 interface (Beckman Coulter, Villepinte, France). […]
# hNav1.7 = hNav1.7 (Homo sapiens, UniProt Q15858); test: automated patch-clamp, hNav1.7 stably expressed in CHO cells; assay type: cell-based
# Sequence of hNav1.7 (Q15858 whole entry): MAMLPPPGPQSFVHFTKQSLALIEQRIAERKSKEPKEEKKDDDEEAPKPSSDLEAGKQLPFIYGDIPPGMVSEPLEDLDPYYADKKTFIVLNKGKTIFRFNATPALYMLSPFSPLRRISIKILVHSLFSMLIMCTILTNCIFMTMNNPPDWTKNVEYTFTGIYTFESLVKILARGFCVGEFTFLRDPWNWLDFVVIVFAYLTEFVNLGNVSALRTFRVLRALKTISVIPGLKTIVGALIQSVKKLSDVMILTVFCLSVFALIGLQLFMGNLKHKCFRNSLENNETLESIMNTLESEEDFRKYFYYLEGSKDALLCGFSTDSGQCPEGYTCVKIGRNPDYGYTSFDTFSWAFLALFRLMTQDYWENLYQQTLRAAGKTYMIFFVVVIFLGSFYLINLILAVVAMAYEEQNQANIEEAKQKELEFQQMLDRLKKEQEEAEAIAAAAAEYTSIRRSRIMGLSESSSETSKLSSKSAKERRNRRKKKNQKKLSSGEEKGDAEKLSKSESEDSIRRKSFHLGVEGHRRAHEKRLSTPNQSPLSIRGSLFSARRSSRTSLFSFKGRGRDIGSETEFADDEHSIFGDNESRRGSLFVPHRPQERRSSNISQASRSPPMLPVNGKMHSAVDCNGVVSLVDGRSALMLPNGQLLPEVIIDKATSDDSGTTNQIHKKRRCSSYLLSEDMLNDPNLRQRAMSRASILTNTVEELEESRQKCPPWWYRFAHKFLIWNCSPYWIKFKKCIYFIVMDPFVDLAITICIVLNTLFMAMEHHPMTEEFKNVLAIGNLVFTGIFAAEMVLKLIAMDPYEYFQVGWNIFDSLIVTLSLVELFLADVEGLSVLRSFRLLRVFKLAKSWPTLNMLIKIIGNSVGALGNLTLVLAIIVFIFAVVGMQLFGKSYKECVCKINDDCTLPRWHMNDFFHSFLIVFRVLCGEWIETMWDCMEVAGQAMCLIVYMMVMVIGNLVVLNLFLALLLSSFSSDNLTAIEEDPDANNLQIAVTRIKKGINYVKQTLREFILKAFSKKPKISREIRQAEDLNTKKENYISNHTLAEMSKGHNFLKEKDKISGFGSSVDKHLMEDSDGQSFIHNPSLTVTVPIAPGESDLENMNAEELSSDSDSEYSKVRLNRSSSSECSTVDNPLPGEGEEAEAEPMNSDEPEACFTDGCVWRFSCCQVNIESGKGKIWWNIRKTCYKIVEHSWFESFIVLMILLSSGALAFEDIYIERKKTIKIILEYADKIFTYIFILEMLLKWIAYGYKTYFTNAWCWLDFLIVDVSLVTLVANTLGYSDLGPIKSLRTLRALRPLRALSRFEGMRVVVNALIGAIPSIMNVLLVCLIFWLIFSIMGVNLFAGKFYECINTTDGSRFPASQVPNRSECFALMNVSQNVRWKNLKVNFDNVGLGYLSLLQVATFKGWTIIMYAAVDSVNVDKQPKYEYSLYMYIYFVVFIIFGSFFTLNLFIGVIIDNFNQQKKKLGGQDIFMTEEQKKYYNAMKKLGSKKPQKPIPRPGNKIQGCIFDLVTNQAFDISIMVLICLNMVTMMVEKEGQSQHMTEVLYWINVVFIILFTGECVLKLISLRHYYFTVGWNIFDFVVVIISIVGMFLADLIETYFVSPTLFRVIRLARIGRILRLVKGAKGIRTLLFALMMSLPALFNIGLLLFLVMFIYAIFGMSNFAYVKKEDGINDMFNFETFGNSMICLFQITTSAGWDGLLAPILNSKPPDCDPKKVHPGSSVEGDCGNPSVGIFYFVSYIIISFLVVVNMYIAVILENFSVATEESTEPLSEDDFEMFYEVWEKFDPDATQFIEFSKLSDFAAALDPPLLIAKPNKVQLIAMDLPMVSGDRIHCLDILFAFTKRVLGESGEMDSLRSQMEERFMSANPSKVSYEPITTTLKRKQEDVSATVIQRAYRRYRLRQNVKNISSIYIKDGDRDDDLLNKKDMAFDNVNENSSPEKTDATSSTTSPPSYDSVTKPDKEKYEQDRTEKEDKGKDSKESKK
# Protocol: as §1
# (§3) Chips with single-hole and high-resistance 5.14 ± 0.02 MΩ (n = 384) were used for HEK-293 cell recordings. Only cells with seal resistance above 500 MΩ and Rs values <15 MΩ were kept for analyses. All Rs values were compensated at 90%. Voltage pulses and whole-cell recordings were achieved using the PatchControl384 v1.5.3 software (Nanion Technologies, Munich, Germany) and the Biomek v1.0 interface (Beckman Coulter, Villepinte, France). Prior to recordings, dissociated cells were shaken at 60 rpm in a cell hotel reservoir at 10°C. After cell catching, sealing, whole-cell formation, liquid application, recording, and data acquisition were all performed sequentially and automatically. The intracellular solution contained (in mM): 10 KCl, 110 kF, 10 NaCl, 1 MgCl2, 1 CaCl2, 10 Ethylene Glycol Tetraacetic Acid (EGTA) and 10 HEPES (pH 7.2, osmolarity 280 mOsm), and the extracellular solution (in mM): 140 NaCl, 4 KCl, 2 CaCl2, 1 MgCl2, five glucose, and 10 HEPES (pH 7.4, osmolarity 298 mOsm). Whole-cell experiments were done at −100 mV holding potential, while currents triggered at 0 mV test potential were sampled at 10 kHz (sweeps every 8 s). […]
# hNav1.4 = test: automated patch-clamp, hNav1.4; assay type: cell-based, human
# From the text: as §3, with “s). Compounds were prepared at various concentrations in the extracellular solution supplemented with 0.3% BSA and distributed in 384-well plates according to a pre-designed template.” for “s).”
# C57Bl6 mice = conditions: mouse, in vivo, ip
# mNav1.7 = target: T1, mNav1.7 (Mus musculus, UniProt Q62205); test: automated patch-clamp, mNav1.7 electroporated in HEK293 cells; assay type: cell-based; conditions: mNav1.7 (Figure 4b)
# T1 construct: DYK (FLAG) tag of vector pcDNA3.1+/C-(K)-DYK (C); host or cells: HEK-293T cells, Maxcyte electroporation
# T1 sequence (Q62205 whole entry): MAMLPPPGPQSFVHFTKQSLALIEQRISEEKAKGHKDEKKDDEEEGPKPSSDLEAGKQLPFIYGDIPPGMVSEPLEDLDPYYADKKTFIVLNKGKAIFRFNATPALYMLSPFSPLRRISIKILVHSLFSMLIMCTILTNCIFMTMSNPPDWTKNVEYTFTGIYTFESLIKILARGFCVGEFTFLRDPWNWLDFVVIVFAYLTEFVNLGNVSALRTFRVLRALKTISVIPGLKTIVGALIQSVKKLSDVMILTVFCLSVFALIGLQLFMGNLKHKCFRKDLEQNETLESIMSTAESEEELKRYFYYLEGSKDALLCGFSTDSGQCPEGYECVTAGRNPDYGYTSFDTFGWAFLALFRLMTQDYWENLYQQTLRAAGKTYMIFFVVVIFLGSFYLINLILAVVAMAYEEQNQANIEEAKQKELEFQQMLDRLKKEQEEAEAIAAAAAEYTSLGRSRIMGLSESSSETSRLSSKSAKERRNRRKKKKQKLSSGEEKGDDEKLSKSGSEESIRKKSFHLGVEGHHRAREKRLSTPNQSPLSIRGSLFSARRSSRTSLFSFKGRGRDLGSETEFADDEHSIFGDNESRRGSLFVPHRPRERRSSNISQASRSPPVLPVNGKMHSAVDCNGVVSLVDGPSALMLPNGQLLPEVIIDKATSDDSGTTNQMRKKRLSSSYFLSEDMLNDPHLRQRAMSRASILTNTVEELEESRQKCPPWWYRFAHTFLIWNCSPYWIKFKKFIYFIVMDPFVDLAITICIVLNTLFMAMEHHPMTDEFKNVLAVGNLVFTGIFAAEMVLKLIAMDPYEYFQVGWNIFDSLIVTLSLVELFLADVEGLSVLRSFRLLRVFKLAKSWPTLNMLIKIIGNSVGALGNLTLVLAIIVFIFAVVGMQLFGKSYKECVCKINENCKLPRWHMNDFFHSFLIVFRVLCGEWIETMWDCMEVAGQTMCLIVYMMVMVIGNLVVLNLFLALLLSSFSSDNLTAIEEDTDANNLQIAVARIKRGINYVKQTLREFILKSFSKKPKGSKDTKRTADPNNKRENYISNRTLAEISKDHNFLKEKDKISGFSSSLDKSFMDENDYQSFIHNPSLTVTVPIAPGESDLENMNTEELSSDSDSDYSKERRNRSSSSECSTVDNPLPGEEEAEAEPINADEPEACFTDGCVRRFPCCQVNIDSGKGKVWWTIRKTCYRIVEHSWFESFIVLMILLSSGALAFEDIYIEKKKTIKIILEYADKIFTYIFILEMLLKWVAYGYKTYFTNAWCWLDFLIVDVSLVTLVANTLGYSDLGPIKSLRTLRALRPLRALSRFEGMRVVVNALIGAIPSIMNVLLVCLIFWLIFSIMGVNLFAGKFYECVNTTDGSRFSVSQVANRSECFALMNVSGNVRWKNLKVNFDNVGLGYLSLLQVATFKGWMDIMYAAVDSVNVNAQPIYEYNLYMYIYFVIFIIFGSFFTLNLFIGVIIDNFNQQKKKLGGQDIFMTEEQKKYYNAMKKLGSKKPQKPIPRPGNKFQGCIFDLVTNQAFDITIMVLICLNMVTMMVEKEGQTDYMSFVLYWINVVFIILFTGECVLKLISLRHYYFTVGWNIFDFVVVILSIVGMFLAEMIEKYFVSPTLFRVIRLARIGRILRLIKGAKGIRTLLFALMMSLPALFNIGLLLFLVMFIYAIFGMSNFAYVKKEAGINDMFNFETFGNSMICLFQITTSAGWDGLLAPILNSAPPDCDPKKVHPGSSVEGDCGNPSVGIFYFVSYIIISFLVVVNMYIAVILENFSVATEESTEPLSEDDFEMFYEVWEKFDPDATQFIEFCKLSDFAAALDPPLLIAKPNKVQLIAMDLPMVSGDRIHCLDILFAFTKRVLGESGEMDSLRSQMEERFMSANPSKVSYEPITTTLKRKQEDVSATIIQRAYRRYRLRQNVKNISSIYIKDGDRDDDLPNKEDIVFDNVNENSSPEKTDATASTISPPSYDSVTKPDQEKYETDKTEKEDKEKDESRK
# Protocol: as §1, §2
# [3] = tested on: mice (adult female Swiss); conditions: mouse, in vivo
# From the text: (§4) The study was experimentally designed to have group sizes of at least six animals per group, with intravenous injection as an exclusion criterion. In addition, randomization and blinding (one of the two experimenters being blind to treatment group) were undertaken in all animal experiments. […] Prior to testing, each mouse underwent a 20-min acclimation to the experimental laboratory environment (in its home cage).
# [4] = tested on: mice (adult female Swiss); test: automated von Frey test (tactile sensitivity); assay type: in vivo, mouse
# [5] = tested on: mice (adult female Swiss); test: hot-plate test (heat sensitivity); assay type: in vivo, mouse; conditions: 55.0°C
# From the text: as §4
# Each mouse, injected or not with PBS +0.1% BSA or toxin solution in the right hind limb, was put on a hot-plate (HCP No. 35150, Ugo Basile, Italy) set at the temperature of 55.0°C ± 0.2°C 15–30 min after limb injection. The measured parameter as the first pain-related manifestation was the latency (in seconds) for the animal to shake the right hind limb ([Deuis et al., 2017]). This latency, considered as a painful response to heat, was recorded simultaneously by two observers (one being blind to treatment group) with a timer integrated into the set-up. A maximal cut-off time of 30 s was used to prevent tissue damage.
# [6] = tested on: TTX-R Na^+ currents from adult mouse DRG neurons
# N-type calcium channels = conditions: cited from earlier work
# ryanodine receptor = conditions: ref Ronjat et al., 2016; cited from earlier work
# Nav1.7 = conditions: cited from earlier work
compound,measurement,setting,value
"NC1=N[C@H](O)[C@H]2[C@H]3O[C@]4(O)O[C@@H]([C@@H](O)[C@@]2(N1)[C@@H]4O)[C@]3(O)CO [TTX, tetrodotoxin, reference compound]",Na+ current remaining (% of initial peak amplitude),[1],64.8% ± 4.2
same,Na+ current remaining (% of initial peak amplitude),[2],9.5% ± 1.7
CC[C@H](C)[C@H](NC(=O)[C@H](CCC(N)=O)NC(=O)[C@H](Cc1ccc(O)cc1)NC(=O)[C@H](CCCCN)NC(=O)[C@@H]1CSSC[C@@H]2NC(=O)[C@H](CCC(N)=O)NC(=O)[C@H](CC(=O)O)NC(=O)[C@H](CC(N)=O)NC(=O)[C@H](CO)NC(=O)[C@@H]3CCCN3C(=O)[C@H](CC(N)=O)NC(=O)[C@@H]3CSSC[C@H](NC(=O)[C@H](C(C)C)NC(=O)[C@H](CC(C)C)NC(=O)[C@H](CCCCN)NC(=O)[C@H](CO)NC(=O)[C@H](CO)NC(=O)[C@H](CCCCN)NC(=O)[C@H](CSSC[C@H](NC(=O)[C@@H](N)CCC(=O)O)C(=O)N[C@@H](CC(C)C)C(=O)N[C@@H](CCC(=O)O)C(=O)N[C@@H]([C@@H](C)CC)C(=O)N[C@@H](Cc4ccccc4)C(=O)N[C@@H](CCCCN)C(=O)N[C@@H](C)C(=O)N3)NC2=O)C(=O)N[C@@H](CO)C(=O)N[C@@H](CCCNC(=N)N)C(=O)N[C@@H](CCCCN)C(=O)N[C@@H]([C@@H](C)O)C(=O)N[C@@H](CCCNC(=N)N)C(=O)N[C@@H](Cc2c[nH]c3ccccc23)C(=O)N1)C(=O)NCC(=O)O [sHwTx-IV GCOOH],inhibition of hNav1.5,hNav1.5,"no inhibition up to 3,300 nM"
same,fold less potent than HwTx-IV on hNav1.7,hNav1.7,16 fold
same,nH (Hill number),hNav1.7; hNav1.7 (Figure 4c),−0.98
same,nH (Hill number),hNav1.7; hNav1.7 in CHO cells (Figure 4a),−0.97
same,inhibition of hNav1.4,hNav1.4,not affected
same,animals with signs of hindlimb weakness,C57Bl6 mice,Seven out of 10
same,death,C57Bl6 mice,none of the animals died
same,distance travelled,C57Bl6 mice,unaffected
same,duration of activity,C57Bl6 mice,unaffected
same,"number of movements, 60 min",C57Bl6 mice,accentuated 60 min later
same,"number of movements, first 10 min",C57Bl6 mice,reduction in the number of movements
same,rearing events,C57Bl6 mice,reduced
same,signs of suffering,C57Bl6 mice,no signs of suffering
same,IC50,[2],0.014 µM
same,TTX-S peak current amplitude after wash-out,[2],−3.2 ± 0.7 nA
same,"TimeA (10% to 90% current increase, activation)",[2],0.31 ± 0.06 ms and 0.27 ± 0.07 ms and 0.28 ± 0.11 ms
same,"TimeI (90% to 10% current decrease, inactivation)",[2],6.93 ± 1.23 ms and 6.66 ± 1.42 ms and 6.59 ± 1.24 ms
same,effect on activation or inactivation kinetics,[2],did not alter activation or inactivation kinetics
same,fold more potent on TTX-S DRG currents than on mNav1.7 currents,[2],11.8 fold
same,fold more potent than HwTx-IV on mouse DRG TTX-S Na+ currents,[2],9.5 fold
same,nH (Hill number),[2],0.7
same,reversibility of effect on TTX-S current,[2],reversible
same,slope (kG) of conductance-voltage curves,[2],"slight, but significant (P < 0.002), changes"
same,VI50% (voltage of 50% inactivation),"[2]; 13 nM, n = 4",−82 ± 2 mV
same,VA50% (voltage of 50% maximal conductance),"[2]; 13 nM, n = 5",−32 ± 1 mV
same,block of TTX-S Na+ currents,[2]; 130 nM,potently blocked
same,time to stationary TTX-S peak current block,"[2]; 130 nM, n = 8",2.6 ± 0.6 min
same,nH (Hill number),mNav1.7,−0.90
same,death,[3],absence of death
same,toxicity (behaviour) after intraplantar injection,[3],no abnormal mice behavior
same,force intensity for hind limb withdrawal,"[4]; 98 nmol/kg intraplantar, 15–30 min, versus vehicle, P < 0.010",significantly (P < 0.010) increased
same,"dose efficiency difference between both peptides, von Frey",[4]; 14–98 nmol/kg intraplantar,no dose efficiency difference could be observed between both peptides
same,reaction time to heat (latency to shake hind limb),"[5]; 10–98 nmol/kg intraplantar, 15–30 min, versus vehicle, P < 0.050",significant (P < 0.050) increase in the reaction time to heat
same,"threshold analgesic dose, hot-plate",[5]; intraplantar,10 nmol/kg
same,IC50,[6],2 µM
same,nH (Hill number),[6],0.8
same,block of TTX-R Na+ currents,[6]; 130 nM,largely sparring
ω-conotoxin MVIIA,fold better affinity than non-amidated ω-conotoxin MVIIA-Gly-COOH,N-type calcium channels,10 fold
"maurocalcin: a scorpion venom peptide (GDCLPHLKLCKENKDCCSKKCKRRGTNIEKRCR; UniProt P60254 1-33, looked up)",effect of phosphorylation by protein kinase A,ryanodine receptor,converts the peptide from an allosteric activator to a ryanodine receptor blocker
"protoxin-II: protoxin-II, Nav1.7 selective to a large extent [reference compound]",inhibition of Na+ current,[2]; 0.01 µM,80%
same,Nav1.7 selectivity,Nav1.7,Nav1.7 selective to a large extent
